Measured values: patent US20230348538A1, “METHOD FOR TREATMENT OF DRY EYE COMPRISNG APPLYING P55PIK INHIBITOR” (Wuhan Yicheng Biological Technology Co., Ltd., priority 2020, published 2023)

What was measured:
[1] = test system: rabbit model of dry eye (0.1% benzalkonium chloride); test: Rabbit model of dry eye: conjunctival impression cytology (CIC), goblet cell density; type: in vivo, New Zealand white rabbits; conditions: following medication; statistically significant; FIG. 5
Method: 1.2.1 Grouping: thirty New Zealand white rabbits were randomly divided into three groups, each comprising 10 rabbits: a blank control group, a solvent control group, and a drug treatment group.
1.2.2 Preparation of a rabbit model of dry eye: the right eye of each rabbit was used to establish a dry eye rabbit model by administering 0.1% benzalkonium chloride eye drops twice a day for 4 weeks. After 4 weeks, the dry eye rabbit model was evaluated, with the conjunctiva appearing dry, tear production being reduced, and Schirmer test values being less than 10 mm/5 min (compared to the control group, where all Schirmer test values were above 10 mm). […]
1.3.3 Conjunctival impression cytology (CIC) examination: CIC examination was performed on days 1, 4, and 7 after treatment; the nitrocellulose membranes were cut into two strips of 3.5 mm×3.5 mm each, soaked in distilled water for 4 h, and then dried; after surface anesthesia, the rough side of the two strips of the nitrocellulose membranes were placed on the nasal and temporal quadrants of the conjunctiva and pressed for 10 seconds to obtain surface epithelial cells; the nitrocellulose membranes were then fixed in 95% ethanol and stained with periodic acid-Schiff (PAS); the number of the goblet cells was counted under an optical microscope and graded according to the Nelson scoring system.

[2] = test system: dry eye model induced by 0.2% benzalkonium chloride solution; test: Benzalkonium chloride dry eye model: Schirmer's test I (phenol red thread); type: in vivo, C57BL/6 mice
Method: The healthy male C57BL/6 mice were kept in a controlled environment with a temperature of (25±1)° C., a relative humidity of (25±5)%, and light-dark cycles (9 AM-9 PM) with simulated dawn and dusk. Forty mice (80 eyes) were treated with 5 μL of 0.2% benzalkonium chloride solution twice a day (8:00 AM and 6:00 PM) for 14 days to induce dry eye symptoms, while the remaining ten mice (20 eyes) received no treatment and served as a baseline control. Modeling was carried out on the 15th day; and the dry eye rat models were screened based on tear film break-up time (BUT), fluorescein sodium staining of corneal, and Schirmer's test I for tear secretion. To assess tear secretion, Schirmer's test I was performed on mice at 3 PM each day using the phenol red thread; general anesthesia was induced by intraperitoneal injection of pentobarbital (50 mg/kg body weight); the lower eyelid was grasped and gently pulled down; front end of the phenol red thread, folded 1 mm, was placed on the conjunctival surface near the outer canthus of the lower eyelid for 15 seconds; the length of the red-stained portion of the phenol red thread was measured and recorded; the eyelid was then closed after the Schirmer's test I to avoid excessive exposure; each eye was tested twice, and the average length of the red-stained portion of the phenol red thread was recorded as the final result. […] Group A, the drug treatment group, was treated with the eye drops comprising 0.1% TAT-[…] peptide, four times a day; Group B, the solvent control group, was treated with eye drops without TAT-[…] peptide, four times a day; and Group C, the blank control group, received no treatment; on days 1, 4, and 7 after treatment, BUT, Schirmer's test I, and fluorescein sodium staining were performed; on the 7th day, the paraffin sections of the conjunctival fornix was stained by PAS stain; and the number of PAS-positive goblet cells was counted.

## TAT-N16 peptide: cell-penetrating artificial peptide, sequence SEQ ID NO: 2, constructed by linking the peptide N16 to a TAT sequence; P55PIK inhibitor (YGRKKRRQRRRMMPYSTELIFYIEMDP)
[1]
  Goblet cell density (CIC examination) compared to before medication: gradual increase
[2]; 4th day of treatment
  Tear secretion volume compared with blank control group and solvent control group: significantly higher
[2]; 4 days of treatment, 0.1% eye drops four times a day
  Schirmer's test I values (x ± s): 5.14 ± 0.29 mm
[2]; 7 days of continuous treatment, P<0.05
  Tear secretion volume compared with blank control group and solvent control group: significantly higher
[2]; 7 days of treatment, 0.1% eye drops four times a day
  Schirmer's test I values (x ± s): 5.88 ± 0.63 mm
[2]; before treatment (baseline), drug treatment group, 0.1% eye drops
  Schirmer's test I values (x ± s): 4.19 ± 0.24 mm
